Assays:
Assay type in all cases: biochemical
Human FXIa = Human FXIa (Homo sapiens (Human), UniProt P03951); test: Determination of the % inhibition for FXIa; details: 40 μM test compound, 25° C., substrate Z-Gly-Pro-Arg-AFC
Protocol: Determination of the % Inhibition for FXIa
Human FXIa (Enzyme Research Laboratories) was incubated at 25° C. with the fluorogenic substrate Z-Gly-Pro-Arg-AFC and 40 μM of the test compound. Residual enzyme activity (initial rate of reaction) was determined by measuring the change in […].

Human plasma kallikrein = Human plasma kallikrein (Homo sapiens (Human), UniProt P03952); test: Determination of the IC50 for plasma kallikrein; details: 25° C., fluorogenic substrate H-DPro-Phe-Arg-AFC; read-out: IC50 (human PKaI)
Protocol: Determination of the IC50 for Plasma Kallikrein
(§1) Human plasma kallikrein (Protogen) was incubated at 25° C. with the fluorogenic substrate H-DPro-Phe-Arg-AFC and various concentrations of the test compound. Residual enzyme activity (initial rate of reaction) was determined by measuring the change in […] at 410 nm and the IC50 value for the test compound was determined.

Human KLK1 = Human KLK1 (Homo sapiens (Human), UniProt P06870); test: Determination of the IC50 for KLK1; details: 25° C., fluorogenic substrate H-DVal-Leu-Arg-AFC
Protocol: Determination of the IC50 for KLK1
as §1, with “KLK1 (Callbiochem)” for “plasma kallikrein (Protogen)”, “H-DVal-Leu-Arg-AFC” for “H-DPro-Phe-Arg-AFC”

Sequence of Human FXIa (P03951 388-625): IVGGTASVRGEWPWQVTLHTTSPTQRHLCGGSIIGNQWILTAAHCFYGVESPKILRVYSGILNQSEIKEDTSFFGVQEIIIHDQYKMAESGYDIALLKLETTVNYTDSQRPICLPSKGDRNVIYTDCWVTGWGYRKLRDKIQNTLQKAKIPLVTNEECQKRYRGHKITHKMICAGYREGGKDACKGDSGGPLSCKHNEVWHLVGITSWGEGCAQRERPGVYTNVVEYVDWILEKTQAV
Sequence of Human FXIa (P03951 19-387 partner): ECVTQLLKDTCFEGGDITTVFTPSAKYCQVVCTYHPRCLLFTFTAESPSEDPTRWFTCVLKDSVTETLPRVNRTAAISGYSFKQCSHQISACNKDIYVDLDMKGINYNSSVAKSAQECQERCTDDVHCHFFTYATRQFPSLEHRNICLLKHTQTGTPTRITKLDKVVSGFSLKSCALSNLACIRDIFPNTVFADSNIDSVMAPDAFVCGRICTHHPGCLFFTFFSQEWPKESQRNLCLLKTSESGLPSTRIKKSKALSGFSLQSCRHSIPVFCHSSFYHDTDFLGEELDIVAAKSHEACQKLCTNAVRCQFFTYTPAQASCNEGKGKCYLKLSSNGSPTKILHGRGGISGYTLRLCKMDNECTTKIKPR
Sequence of Human plasma kallikrein (P03952 391-638): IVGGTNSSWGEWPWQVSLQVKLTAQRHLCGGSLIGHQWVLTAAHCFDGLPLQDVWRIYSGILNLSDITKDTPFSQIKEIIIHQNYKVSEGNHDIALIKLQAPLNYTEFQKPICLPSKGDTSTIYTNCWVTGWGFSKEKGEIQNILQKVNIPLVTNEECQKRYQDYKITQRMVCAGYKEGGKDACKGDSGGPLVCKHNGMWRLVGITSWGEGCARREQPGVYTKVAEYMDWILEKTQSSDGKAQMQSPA
Sequence of Human plasma kallikrein (P03952 20-390 partner): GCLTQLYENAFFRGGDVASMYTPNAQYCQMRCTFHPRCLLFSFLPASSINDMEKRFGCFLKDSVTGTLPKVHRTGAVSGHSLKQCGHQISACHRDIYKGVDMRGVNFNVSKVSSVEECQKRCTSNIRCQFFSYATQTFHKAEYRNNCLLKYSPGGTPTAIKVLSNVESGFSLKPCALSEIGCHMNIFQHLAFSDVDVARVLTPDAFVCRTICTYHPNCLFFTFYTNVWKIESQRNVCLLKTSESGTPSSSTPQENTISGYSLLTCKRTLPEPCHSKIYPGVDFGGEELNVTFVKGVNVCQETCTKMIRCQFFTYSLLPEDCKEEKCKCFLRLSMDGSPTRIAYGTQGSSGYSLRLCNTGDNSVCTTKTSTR
Sequence of Human KLK1 (P06870 25-262): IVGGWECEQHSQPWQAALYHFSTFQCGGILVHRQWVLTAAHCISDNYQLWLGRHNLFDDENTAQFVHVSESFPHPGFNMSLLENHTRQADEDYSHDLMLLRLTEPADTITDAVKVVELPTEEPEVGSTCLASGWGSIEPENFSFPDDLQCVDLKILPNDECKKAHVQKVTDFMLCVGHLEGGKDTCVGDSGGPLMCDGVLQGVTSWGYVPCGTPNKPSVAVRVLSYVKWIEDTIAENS

| SMILES | IC50 (Human plasma kallikrein) [nM] | IC50 (Human KLK1) [nM] | inhibition at 40 µM (Human FXIa) [%] |
| --- | --- | --- | --- |
| CCOc1cccc(CNC(=O)c2cn(Cc3ccc(Cn4cc(C)cn4)cc3)nc2C(F)(F)F)c1 [Example 6, N-[(3-ethoxyphenyl)methyl]-1-({4-[(4-methylpyrazol-1-yl)methyl]phenyl}methyl)-3-(trifluoromethyl)pyrazole-4-carboxamide] | – | – | 0 |
| COCc1nn(Cc2ccc(Cn3ccccc3=O)cc2)cc1C(=O)NCc1cnccc1C(F)(F)F [Example 31, 3-(methoxymethyl)-1-({4-[(2-oxopyridin-1-yl)methyl]phenyl}methyl)-N-{[4-(trifluoromethyl)pyridin-3-yl]methyl}pyrazole-4-carboxamide] | 392 | > 10000 | – |
| COCc1nn(Cc2ccc(Cn3ccccc3=O)cc2)cc1C(=O)NCc1ccc(C)nc1 [Example 32, 3-(methoxymethyl)-N-[(6-methylpyridin-3-yl)methyl]-1-({4-[(2-oxopyridin-1-yl)methyl]phenyl}methyl)pyrazole-4-carboxamide] | 7870 | > 10000 | – |
| COCc1nn(Cc2ccc(Cn3ccccc3=O)cc2)cc1C(=O)NCc1cnccc1C(F)(F)F [Example 37, 3-(methoxymethyl)-1-({4-[(2-oxopyridin-1-yl)methyl]phenyl}methyl)-N-{[4-(trifluoromethyl)pyridin-3-yl]methyl}pyrazole-4-carboxamide] | – | – | 0 |
| COCc1nn(Cc2ccc(Cn3ccccc3=O)cc2)cc1C(=O)NCc1ccc(C)nc1 [Example 39, 3-(methoxymethyl)-N-[(6-methylpyridin-3-yl)methyl]-1-({4-[(2-oxopyridin-1-yl)methyl]phenyl}methyl)pyrazole-4-carboxamide] | – | – | 0 |
| COCc1nn(Cc2ccc(N3CCCC3)nc2)cc1C(=O)NCc1csc2ccc(Cl)cc12 [Example 46, N-[(5-chloro-1-benzothiophen-3-yl)methyl]-3-(methoxymethyl)-1-{[6-(pyrrolidin-1-yl)pyridin-3-yl]methyl}pyrazole-4-carboxamide] | 2400 | > 10000 | – |
| NC(=O)c1ccc(CNC(=O)c2cn(Cc3ccc(Cn4ccccc4=O)cc3)nc2C2CC2)cc1 [Example 50, N-[(4-carbamoylphenyl)methyl]-3-cyclopropyl-1-({4-[(2-oxopyridin-1-yl)methyl]phenyl}methyl)pyrazole-4-carboxamide] | 1800 | > 10000 | – |

Continued, in another order:

| IC50 (Human plasma kallikrein) [nM] | IC50 (Human KLK1) [nM] | SMILES | inhibition at 40 µM (Human FXIa) [%] |
| --- | --- | --- | --- |
| 144 | > 10000 | COCc1nn(Cc2ccc(Cn3ccccc3=O)cc2)cc1C(=O)NCc1csc2ccc(Cl)cc12 [Example 45, N-[(5-chloro-1-benzothiophen-3-yl)methyl]-3-(methoxymethyl)-1-({4-[(2-oxopyridin-1-yl)methyl]phenyl}methyl)pyrazole-4-carboxamide] | – |
| 753 | > 10000 | COCc1nn(Cc2ccc(Cn3cc(C)cn3)cc2)cc1C(=O)NCc1csc2ccc(Cl)cc12 [Example 47, N-[(5-chloro-1-benzothiophen-3-yl)methyl]-3-(methoxymethyl)-1-({4-[(4-methylpyrazol-1-yl)methyl]phenyl}methyl)pyrazole-4-carboxamide] | – |
| 20.4 | > 40000 | COCc1nn(Cc2ccc(Cn3ccccc3=O)cc2)cc1C(=O)NCc1c(F)cccc1C(F)F [Example 80, N-{[2-(difluoromethyl)-6-fluorophenyl]methyl}-3-(methoxymethyl)-1-({4-[(2-oxopyridin-1-yl)methyl]phenyl}methyl)pyrazole-4-carboxamide] | – |
| 8.7 | > 40000 | COCc1nn(Cc2ccc(Cn3ccccc3=O)cc2)cc1C(=O)NCc1cc(OC)ccc1C(N)=O [Example 86, N-[(2-carbamoyl-5-methoxyphenyl)methyl]-3-(methoxymethyl)-1-({4-[(2-oxopyridin-1-yl)methyl]phenyl}methyl)pyrazole-4-carboxamide] | – |
| 5.5 | > 10000 | COCc1nn(Cc2ccc(Cn3cc(F)ccc3=O)cc2)cc1C(=O)NCc1c(F)ccc(OC)c1F [Example 108, N-[(2,6-difluoro-3-methoxyphenyl)methyl]-1-({4-[(5-fluoro-2-oxopyridin-1-yl)methyl]phenyl}methyl)-3-(methoxymethyl)pyrazole-4-carboxamide] | – |

From US10364238B2, “N-((het) arylmethyl)-heteroaryl-carboxamides compounds as plasma kallikrein inhibitors” (KALVISTA PHARMACEUTICALS LIMITED, priority 2014, dated 2019)
